A word on the inhibition: it is how much of the control response was suppressed.

Molecules are shown by their SMILES. Calls of active or inactive are those of the source. The calls are words filed in the database; no cut-off is given here. Some results are limits rather than exact numbers.

Sequence of Tyrosine-protein kinase ABL1 (Homo sapiens) (P00519 whole entry): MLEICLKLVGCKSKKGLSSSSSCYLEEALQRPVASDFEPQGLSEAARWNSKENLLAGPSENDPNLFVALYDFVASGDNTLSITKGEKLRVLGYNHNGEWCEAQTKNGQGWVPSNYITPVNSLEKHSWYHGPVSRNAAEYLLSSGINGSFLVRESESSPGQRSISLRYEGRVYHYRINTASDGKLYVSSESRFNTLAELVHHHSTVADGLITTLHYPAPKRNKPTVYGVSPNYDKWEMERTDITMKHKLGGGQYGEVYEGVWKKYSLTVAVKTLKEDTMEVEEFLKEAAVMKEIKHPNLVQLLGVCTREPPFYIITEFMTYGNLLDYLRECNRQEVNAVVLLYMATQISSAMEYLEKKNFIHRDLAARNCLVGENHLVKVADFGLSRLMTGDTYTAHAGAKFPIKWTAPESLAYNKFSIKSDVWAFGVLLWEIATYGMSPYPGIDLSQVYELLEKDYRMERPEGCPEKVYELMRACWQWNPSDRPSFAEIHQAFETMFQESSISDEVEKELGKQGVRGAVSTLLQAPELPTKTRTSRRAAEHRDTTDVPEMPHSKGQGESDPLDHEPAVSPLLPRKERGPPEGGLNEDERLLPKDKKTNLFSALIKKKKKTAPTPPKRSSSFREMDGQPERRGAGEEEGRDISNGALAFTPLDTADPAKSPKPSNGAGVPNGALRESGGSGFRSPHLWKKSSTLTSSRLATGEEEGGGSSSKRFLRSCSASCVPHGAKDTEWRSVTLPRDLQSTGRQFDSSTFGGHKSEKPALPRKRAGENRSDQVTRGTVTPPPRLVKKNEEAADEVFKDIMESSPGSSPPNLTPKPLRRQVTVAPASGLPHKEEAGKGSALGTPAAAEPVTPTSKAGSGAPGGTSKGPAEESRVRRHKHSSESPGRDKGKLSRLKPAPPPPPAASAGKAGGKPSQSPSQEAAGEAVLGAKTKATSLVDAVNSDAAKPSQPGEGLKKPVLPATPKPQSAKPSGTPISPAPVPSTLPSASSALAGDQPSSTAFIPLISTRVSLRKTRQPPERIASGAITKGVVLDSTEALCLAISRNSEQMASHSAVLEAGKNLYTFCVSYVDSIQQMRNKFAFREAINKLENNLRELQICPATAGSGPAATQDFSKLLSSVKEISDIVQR
Sequence of Receptor-type tyrosine-protein kinase FLT3 (Homo sapiens) (P36888 whole entry, the tested form may be a part): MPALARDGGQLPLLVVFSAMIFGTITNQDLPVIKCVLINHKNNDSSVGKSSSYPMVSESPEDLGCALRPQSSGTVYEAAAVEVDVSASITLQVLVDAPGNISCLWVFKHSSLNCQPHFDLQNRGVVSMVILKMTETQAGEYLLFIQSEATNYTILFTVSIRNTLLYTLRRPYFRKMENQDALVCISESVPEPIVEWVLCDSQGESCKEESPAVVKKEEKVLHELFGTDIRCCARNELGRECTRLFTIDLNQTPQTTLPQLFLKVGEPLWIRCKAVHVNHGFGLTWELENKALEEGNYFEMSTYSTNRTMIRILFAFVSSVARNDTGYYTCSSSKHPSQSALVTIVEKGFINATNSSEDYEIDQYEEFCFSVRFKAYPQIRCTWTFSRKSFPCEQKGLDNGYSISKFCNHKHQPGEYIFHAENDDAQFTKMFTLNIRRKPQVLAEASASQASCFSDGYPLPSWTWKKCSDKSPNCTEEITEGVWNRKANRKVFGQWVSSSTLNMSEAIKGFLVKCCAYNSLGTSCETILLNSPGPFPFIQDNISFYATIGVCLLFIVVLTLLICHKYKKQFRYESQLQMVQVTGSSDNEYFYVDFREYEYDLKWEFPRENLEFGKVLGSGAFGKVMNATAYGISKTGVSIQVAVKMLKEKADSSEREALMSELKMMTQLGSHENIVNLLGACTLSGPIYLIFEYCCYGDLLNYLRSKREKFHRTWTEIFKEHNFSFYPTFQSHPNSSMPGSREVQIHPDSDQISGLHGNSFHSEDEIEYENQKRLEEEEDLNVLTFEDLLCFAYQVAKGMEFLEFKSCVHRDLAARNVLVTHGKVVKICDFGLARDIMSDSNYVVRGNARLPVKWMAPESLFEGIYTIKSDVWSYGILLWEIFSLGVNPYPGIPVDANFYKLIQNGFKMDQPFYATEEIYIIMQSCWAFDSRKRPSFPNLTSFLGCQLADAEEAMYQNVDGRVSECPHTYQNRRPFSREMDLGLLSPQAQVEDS

The first test addresses T1, Stearoyl-CoA desaturase (Homo sapiens) (UniProt O00767).
T1 sequence (whole entry): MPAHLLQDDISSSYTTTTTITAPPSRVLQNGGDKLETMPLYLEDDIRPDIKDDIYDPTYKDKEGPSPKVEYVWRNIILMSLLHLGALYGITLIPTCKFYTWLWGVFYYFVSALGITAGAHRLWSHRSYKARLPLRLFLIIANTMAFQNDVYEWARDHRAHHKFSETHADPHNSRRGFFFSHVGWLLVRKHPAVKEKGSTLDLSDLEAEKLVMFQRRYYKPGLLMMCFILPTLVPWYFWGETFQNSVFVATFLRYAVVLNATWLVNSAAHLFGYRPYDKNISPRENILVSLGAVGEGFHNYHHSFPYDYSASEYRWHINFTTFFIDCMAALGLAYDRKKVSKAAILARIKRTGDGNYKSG
Briefly: Inhibition of SCD1 in human HepG2 cells assessed as increase in cellular elongase index after 72 hrs by gas chromatographic analysis. The class given is cell-based.
`Cc1nnc(-c2ccc(N3CCC(Oc4cc(F)ccc4Cl)CC3)nn2)o1`: the inhibition result was “Dose-dependent effect”.

Another test addresses T1, Stearoyl-CoA desaturase (Homo sapiens). Put plainly: Inhibition of SCD1 in human HepG2 cells assessed as decrease in 16:1/16:0 desaturase index after 72 hrs by gas chromatographic analysis. Type of test: cell-based.
Regarding `NC(=O)c1c(NC(=O)c2ccc(CN3CCS(=O)(=O)CC3)cc2)sc2c1CCC(CO)C2` (stereo not given), the inhibition entry was “Dose-dependent effect”.
In the case of `NC(=O)c1c(NC(=O)c2ccc(CN3CCOCC3)cc2)sc2c1CCC(CO)C2` (stereo not given), the inhibition result was “Dose-dependent effect”.
Take `NC(=O)c1c(NC(=O)c2ccc(CN3CCCCC3)cc2)sc2c1CCC(CO)C2` (stereo not given): the inhibition result was “Dose-dependent effect”.
Consider `Cc1nnc(-c2ccc(N3CCC(Oc4cc(F)ccc4Cl)CC3)nn2)o1`, for which the inhibition result was “Dose-dependent effect”.
Consider `O=c1[nH]c(-c2ccc(CN3CCOCC3)cc2)nc2sc3c(c12)CCC(CO)C3` (stereo not given), for which the inhibition result was “Dose-dependent effect”.
Turning to `CN(C)Cc1ccc(C(=O)Nc2sc3c(c2C(N)=O)CCC(CO)C3)cc1` (stereo not given), the inhibition result was “Dose-dependent effect”.

A further test shares this target. Put plainly: Inhibition of SCD1 in human HepG2 cells assessed as decrease in 18:1/18:0 desaturase index after 72 hrs by gas chromatographic analysis. Type of test: cell-based.
Regarding `NC(=O)c1c(NC(=O)c2ccc(CN3CCS(=O)(=O)CC3)cc2)sc2c1CCC(CO)C2` (stereo not given), the inhibition result is “Dose-dependent effect”.
Turning to `NC(=O)c1c(NC(=O)c2ccc(CN3CCOCC3)cc2)sc2c1CCC(CO)C2` (stereo not given), the inhibition entry is “Dose-dependent effect”.
The same measure, in the same setting: under `NC(=O)c1c(NC(=O)c2ccc(CN3CCCCC3)cc2)sc2c1CCC(CO)C2` (stereo not given) stands “Dose-dependent effect”; under `Cc1nnc(-c2ccc(N3CCC(Oc4cc(F)ccc4Cl)CC3)nn2)o1`, “Dose-dependent effect”.
Consider `O=c1[nH]c(-c2ccc(CN3CCOCC3)cc2)nc2sc3c(c12)CCC(CO)C3` (stereo not given), for which the inhibition result is “Dose-dependent effect”.
Still for that read-out and setting: under `CN(C)Cc1ccc(C(=O)Nc2sc3c(c2C(N)=O)CCC(CO)C3)cc1` (stereo not given) stands “Dose-dependent effect”.

A further test has the same target. Put plainly: Inhibition of SCD1 in human HepG2 cells assessed as increase in cellular elongase index at 10 uM after 72 hrs by gas chromatographic analysis. The class given is cell-based.
As to `NC(=O)c1c(NC(=O)c2ccc(CN3CCS(=O)(=O)CC3)cc2)sc2c1CCC(CO)C2` (stereo not given), the inhibition entry was “Active”.
Same read-out and setting: under `NC(=O)c1c(NC(=O)c2ccc(CN3CCOCC3)cc2)sc2c1CCC(CO)C2` (stereo not given) stands “Active”.
On the same count and under the same terms, the value for `NC(=O)c1c(NC(=O)c2ccc(CN3CCCCC3)cc2)sc2c1CCC(CO)C2` (stereo not given) was “Active”; that for `Cc1nnc(-c2ccc(N3CCC(Oc4cc(F)ccc4Cl)CC3)nn2)o1` was “Active”.
Take `NC(=O)c1c(NC(=O)c2ccc(CN3CCOCC3)cc2)sc2c1CCC(C(=O)O)C2` (stereo not given): the inhibition entry is “inactive”.
Turning to `O=c1[nH]c(-c2ccc(CN3CCOCC3)cc2)nc2sc3c(c12)CCC(CO)C3` (stereo not given), the inhibition entry was “Active”.
Same read-out and setting: the value for `NC(=O)c1c(NC(=O)c2ccc(CN3CCOCC3)cc2)sc2c1CCC(c1ccc(O)cc1)C2` (stereo not given) was “inactive”.
Take `CN(C)Cc1ccc(C(=O)Nc2sc3c(c2C(N)=O)CCC(CO)C3)cc1` (stereo not given): the inhibition result was “Active”.

A further test shares this target. Put plainly: Inhibition of SCD1 in human HepG2 cells assessed as decrease in 16:1/16:0 desaturase index at 10 uM after 72 hrs by gas chromatographic analysis. The class given is cell-based.
Turning to `NC(=O)c1c(NC(=O)c2ccc(CN3CCS(=O)(=O)CC3)cc2)sc2c1CCC(CO)C2` (stereo not given), the inhibition result is “Active”.
On to `NC(=O)c1c(NC(=O)c2ccc(CN3CCOCC3)cc2)sc2c1CCC(CO)C2` (stereo not given), for which the inhibition entry is “Active”.
The same measure, in the same setting: under `NC(=O)c1c(NC(=O)c2ccc(CN3CCCCC3)cc2)sc2c1CCC(CO)C2` (stereo not given) stands “Active”.
Regarding `Cc1nnc(-c2ccc(N3CCC(Oc4cc(F)ccc4Cl)CC3)nn2)o1`, the inhibition result was “Active”.
On the same count and under the same terms, the value for `O=c1[nH]c(-c2ccc(CN3CCOCC3)cc2)nc2sc3c(c12)CCC(CO)C3` (stereo not given) was “Active”; that for `CN(C)Cc1ccc(C(=O)Nc2sc3c(c2C(N)=O)CCC(CO)C3)cc1` (stereo not given) was “Active”.

The target is the same in a further test. Briefly: Inhibition of SCD1 in human HepG2 cells assessed as decrease in 18:1/18:0 desaturase index AT 10 uM after 72 hrs by gas chromatographic analysis. Type of test: cell-based.
Take `NC(=O)c1c(NC(=O)c2ccc(CN3CCS(=O)(=O)CC3)cc2)sc2c1CCC(CO)C2` (stereo not given): the inhibition result is “Active”.
`NC(=O)c1c(NC(=O)c2ccc(CN3CCOCC3)cc2)sc2c1CCC(CO)C2` (stereo not given): the inhibition result is “Active”.
Same read-out and setting: the value for `NC(=O)c1c(NC(=O)c2ccc(CN3CCCCC3)cc2)sc2c1CCC(CO)C2` (stereo not given) was “Active”.
Take `Cc1nnc(-c2ccc(N3CCC(Oc4cc(F)ccc4Cl)CC3)nn2)o1`: the inhibition entry is “Active”.
On the same count and under the same terms, the value for `O=c1[nH]c(-c2ccc(CN3CCOCC3)cc2)nc2sc3c(c12)CCC(CO)C3` (stereo not given) was “Active”; that for `CN(C)Cc1ccc(C(=O)Nc2sc3c(c2C(N)=O)CCC(CO)C3)cc1` (stereo not given) was “Active”.

A further test has the same target. Put plainly: Inhibition of SCD1 in human HepG2 cells assessed as decrease in cellular elongase index at 10 uM after 72 hrs by gas chromatographic analysis. Type of test: cell-based.
As to `NC(=O)c1c(N)sc2c1CCC(CO)C2` (stereo not given), the inhibition result is “Active”.
On the same count and under the same terms, under `NC(=O)c1c(NC(=O)c2ccc(CN3CCOCC3)cc2)sc2c1CCCC2CCO` (stereo not given) stands “Active”; under `CN(C)Cc1ccc(-c2nc3sc4c(c3c(=O)[nH]2)CCC(CO)C4)cc1` (stereo not given), “Active”; under `CCOC(=O)C1CCc2c(sc(NC(=O)c3ccc(CN4CCOCC4)cc3)c2C(N)=O)C1` (stereo not given), “Active”.
The same measure, in the same setting: the value for `O=c1[nH]c(-c2ccc(CN3CCCCC3)cc2)nc2sc3c(c12)CCC(CO)C3` (stereo not given) was “Active”; that for `O=c1[nH]c(-c2ccc(CN3CCS(=O)(=O)CC3)cc2)nc2sc3c(c12)CCC(CO)C3` (stereo not given) was “Active”.
As for `NC(=O)c1c(NC(=O)c2ccc(CN3CCOCC3)cc2)sc2c1CCCC2`, the inhibition entry is “Active”.

The next test shares this target. Put plainly: Inhibition of SCD1 in human HepG2 cells assessed as increase in cellular elongase index at 1 uM after 72 hrs by gas chromatographic analysis. Type of test: cell-based.
For `NC(=O)c1c(NC(=O)c2ccc(CN3CCOCC3)cc2)sc2c1CCC(CO)C2` (stereo not given), the inhibition entry is “Active”.

For another test the target is unchanged. Put plainly: Inhibition of SCD1 in human HepG2 cells assessed as decrease in 16:1/16:0 desaturase index at 1 uM after 72 hrs by gas chromatographic analysis. Type of test: cell-based.
As to `NC(=O)c1c(NC(=O)c2ccc(CN3CCOCC3)cc2)sc2c1CCC(CO)C2` (stereo not given), the inhibition entry was “Active”.

Another test shares this target. Put plainly: Inhibition of SCD1 in human HepG2 cells assessed as decrease in 18:1/18:0 desaturase index at 1 uM after 72 hrs by gas chromatographic analysis. The class given is cell-based.
Take `NC(=O)c1c(NC(=O)c2ccc(CN3CCOCC3)cc2)sc2c1CCC(CO)C2` (stereo not given): the inhibition entry is “Active”.

The target is the same in another test. Put plainly: Inhibition of SCD1 in human HepG2 cells assessed as decrease in cellular lipid accumulation at 1 uM after 48 hrs by Oil Red O staining-based assay. Type of test: cell-based.
Regarding `Cc1nnc(-c2ccc(N3CCC(Oc4cc(F)ccc4Cl)CC3)nn2)o1`, the inhibition result was “Active”.

The next test shares this target. Put plainly: Inhibition of SCD1 in human HepG2 cells assessed as decrease in cellular lipid accumulation at 10 uM after 48 hrs by Oil Red O staining-based assay. The class given is cell-based.
Take `NC(=O)c1c(NC(=O)c2ccc(CN3CCOCC3)cc2)sc2c1CCC(CO)C2` (stereo not given): the inhibition result is “Active”.
With `CN(C)Cc1ccc(-c2nc3sc4c(c3c(=O)[nH]2)CCC(CO)C4)cc1` (stereo not given), the inhibition entry was “inactive”.

In another test the target is Tyrosine-protein kinase JAK2 (Homo sapiens) (UniProt O60674). Briefly: Inhibition of recombinant human N-terminal His-tagged JAK2 catalytic domain (826 to 1132 residues) expressed in baculovirus expression system at 10 uM by TR-FRET assay relative to control. A general note: Time-resolved FRET reads energy transfer from a long-lived donor to a nearby acceptor.
Sequence of Tyrosine-protein kinase JAK2 (Homo sapiens) (O60674 whole entry, the tested form may be a part): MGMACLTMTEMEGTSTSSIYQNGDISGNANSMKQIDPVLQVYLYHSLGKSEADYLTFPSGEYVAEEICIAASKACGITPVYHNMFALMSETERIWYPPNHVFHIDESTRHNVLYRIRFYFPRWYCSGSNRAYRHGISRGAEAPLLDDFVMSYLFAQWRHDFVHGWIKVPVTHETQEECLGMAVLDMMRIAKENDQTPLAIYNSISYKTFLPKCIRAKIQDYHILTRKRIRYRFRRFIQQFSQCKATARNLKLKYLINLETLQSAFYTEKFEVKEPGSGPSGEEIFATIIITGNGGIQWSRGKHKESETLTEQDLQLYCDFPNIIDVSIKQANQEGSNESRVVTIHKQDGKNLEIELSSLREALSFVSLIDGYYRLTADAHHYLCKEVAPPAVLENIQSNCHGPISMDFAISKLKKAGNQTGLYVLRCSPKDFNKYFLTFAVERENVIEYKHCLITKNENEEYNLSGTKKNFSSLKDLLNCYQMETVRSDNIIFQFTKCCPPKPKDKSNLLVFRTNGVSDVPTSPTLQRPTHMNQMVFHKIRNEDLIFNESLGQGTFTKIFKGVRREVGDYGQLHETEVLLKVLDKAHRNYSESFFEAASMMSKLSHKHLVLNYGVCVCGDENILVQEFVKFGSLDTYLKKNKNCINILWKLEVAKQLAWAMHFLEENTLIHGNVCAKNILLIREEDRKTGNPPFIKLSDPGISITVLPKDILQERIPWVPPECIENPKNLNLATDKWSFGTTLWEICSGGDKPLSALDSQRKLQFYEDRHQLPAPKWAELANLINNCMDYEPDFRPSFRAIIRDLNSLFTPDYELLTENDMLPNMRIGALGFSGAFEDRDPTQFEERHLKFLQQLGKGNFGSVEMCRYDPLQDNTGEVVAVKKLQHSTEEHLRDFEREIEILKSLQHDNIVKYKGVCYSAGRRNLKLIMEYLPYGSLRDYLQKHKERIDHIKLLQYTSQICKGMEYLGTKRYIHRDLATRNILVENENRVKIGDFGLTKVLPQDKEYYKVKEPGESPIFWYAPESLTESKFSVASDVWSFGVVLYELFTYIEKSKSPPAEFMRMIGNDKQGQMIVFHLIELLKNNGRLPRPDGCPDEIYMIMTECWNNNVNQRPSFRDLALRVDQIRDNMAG
Take `NC(=O)c1c(NC(=O)c2ccc(CN3CCOCC3)cc2)sc2c1CCC(CO)C2` (stereo not given): the inhibition was 45%.

Another test addresses Receptor-type tyrosine-protein kinase FLT3 (Homo sapiens) (UniProt P36888). Briefly: Inhibition of recombinant human N-terminal GST-tagged FLT3 cytoplasmic domain (564 to 993 residues) expressed in baculovirus expression system at 10 uM by TR-FRET assay relative to control.
With `NC(=O)c1c(NC(=O)c2ccc(CN3CCOCC3)cc2)sc2c1CCC(CO)C2` (stereo not given), the inhibition is more than 80%.

The target in a further test is Macrophage colony-stimulating factor 1 receptor (Homo sapiens) (UniProt P07333). Put plainly: Inhibition of recombinant human N-terminal GST-tagged FMS cytoplasmic domain (538 to 972 residues) expressed in baculovirus expression system at 10 uM by TR-FRET assay relative to control.
Sequence of Macrophage colony-stimulating factor 1 receptor (Homo sapiens) (P07333 whole entry, the tested form may be a part): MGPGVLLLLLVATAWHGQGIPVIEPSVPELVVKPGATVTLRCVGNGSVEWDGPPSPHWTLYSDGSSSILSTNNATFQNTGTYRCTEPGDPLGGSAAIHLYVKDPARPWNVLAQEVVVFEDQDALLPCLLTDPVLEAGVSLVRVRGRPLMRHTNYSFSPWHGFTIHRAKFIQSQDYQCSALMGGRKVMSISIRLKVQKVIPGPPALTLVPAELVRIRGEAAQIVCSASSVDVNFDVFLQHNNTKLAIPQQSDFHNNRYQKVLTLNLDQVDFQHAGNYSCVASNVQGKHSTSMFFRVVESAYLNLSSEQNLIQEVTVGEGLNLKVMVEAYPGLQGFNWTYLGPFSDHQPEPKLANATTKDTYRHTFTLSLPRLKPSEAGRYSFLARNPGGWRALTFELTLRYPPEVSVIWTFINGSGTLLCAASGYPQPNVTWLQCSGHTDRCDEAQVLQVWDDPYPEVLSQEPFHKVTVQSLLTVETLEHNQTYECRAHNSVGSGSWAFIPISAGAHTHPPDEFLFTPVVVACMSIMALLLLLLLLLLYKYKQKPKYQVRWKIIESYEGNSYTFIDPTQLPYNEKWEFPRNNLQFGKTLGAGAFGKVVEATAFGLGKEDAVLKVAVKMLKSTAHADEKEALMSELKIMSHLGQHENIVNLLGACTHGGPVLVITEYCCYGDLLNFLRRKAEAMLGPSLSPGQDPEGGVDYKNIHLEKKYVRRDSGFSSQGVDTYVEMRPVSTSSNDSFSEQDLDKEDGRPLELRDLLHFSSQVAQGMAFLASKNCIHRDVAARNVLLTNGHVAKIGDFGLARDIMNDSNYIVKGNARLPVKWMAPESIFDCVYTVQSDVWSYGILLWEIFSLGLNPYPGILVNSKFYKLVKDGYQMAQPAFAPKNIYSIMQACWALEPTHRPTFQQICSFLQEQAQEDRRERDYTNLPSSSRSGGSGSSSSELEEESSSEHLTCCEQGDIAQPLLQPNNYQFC
Regarding `NC(=O)c1c(NC(=O)c2ccc(CN3CCOCC3)cc2)sc2c1CCC(CO)C2` (stereo not given), the inhibition is more than 80%.

The next test concerns the target Tyrosine-protein kinase ABL1 (Homo sapiens) (UniProt P00519). Put plainly: Inhibition of full-length recombinant human N-terminal His-tagged ABL expressed in baculovirus expression system at 10 uM by TR-FRET assay relative to control.
For `NC(=O)c1c(NC(=O)c2ccc(CN3CCOCC3)cc2)sc2c1CCC(CO)C2` (stereo not given), the inhibition is more than 80%.

(Values after ChEMBL document CHEMBL4043175, “Tetrahydrobenzothiophene carboxamides: Beyond the kinase domain and into the fatty acid realm” (Bioorg Med Chem Lett, 2017).)
